The values below come from patent US7098219B2, “Inhibitors of cellular efflux pumps of microbes” (Wockhart Limited, priority 2000, dated 2006).

Holding throughout (assay type): cell-based
Assay [1] has as its system Pseudomonas aeruginosa 23587. Briefly: Antibiotic diffusion assay, levofloxacin plate versus water control plate. The conditions noted are these: zone of inhibition in levofloxacin (5 mcg/ml) plate minus water control plate; Mueller Hinton Agar, 35° C. 20 hours. As for the experimental part:
Testing method for Inhibition of the Efflux Pumps of Pseudomonas aeruzinosa 23587, E. coli 2051, Streptococcus pneumoniae 3514 and Streptococcus pyozenus 26-00
Antibiotic Diffusion Assay
The activity of efflux pump inhibitor was also assessed using an antibiotic diffusion assay. For this assay Pseudomonas aeruginosa 23587 is used. Pseudomonas aeruginosa 23587 is a clinical isolate containing multiple efflux pumps which can be mexAB, mexCD, mexEF but not limited to mex classification only. Pseudomonas aeruginosa are grown in tryptic soya broth for 20 hours at 35° C. Two antibiotic assay plates are prepared in Mueller Hinton Agar using above inoculum. The bacterial count in a plate is 1×10^6 cells/ml. In one of the plates, levofloxacin is incorporated at 5 mcg/ml, while in the control plate an equivalent amount of water is added. […]. The plates are incubated at 35° C. for 20 hours and the zone of inhibition was recorded in mm (table 2). The difference in the diameter of zone of inhibition was calculated by subtracting from the diameter of the zone of inhibition in the levofloxacin containing plate the diameter of the zone of inhibition in the water containing control plate. Example, if the diameter of the zone of inhibition in the levofloxacin plate is X mm and the diameter of the zone of inhibition in the control plate is Y mm, the difference Z=X−Y and is a measure of the activity of the efflux pump inhibitor.

The subject of assay [2] is Staphylococcus aureus 1199 B NorA+. The following applies: combination with ciprofloxacin, broth microdilution checkerboard, 35° C. 20 hours; FIC index ≦0.5 synergistic, 0.5–2.0 additive, >2.0 antagonistic. In short, it runs like this:
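Broth microdilution checkerboard with ciprofloxacin against S. aureus 1199B NorA+, pump inhibitor titrated along one axis; inoculum 5×10^5 CFU/ml in Mueller Hinton broth, 35 °C for 20 hours. Growth read by visible turbidity, confirmed by plate reader; FIC index derived from inhibitor MIC in combination versus alone.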
(Dilution methods test growth across graded concentrations, often in twofold steps.)

Assay [3] concerns Mef Efflux Pump of Streptococcus pneumoniae 3514 and Streptococcus pyogenes 26-00. Put plainly: Two plate diffusion assay for macrolide (Mef) efflux pump inhibitors, azithromycin plate versus control plate. The following applies: zone of inhibition in antibiotic plate (method: azithromycin 0.5 mcg/ml; footnote: levofloxacin) minus water control plate; strain not given.

In the case of `C[C@H](N)C(=O)OC1CCN(c2c(F)cc3c(=O)c(C(=O)O)cn4c3c2CC[C@@H]4C)CC1.Cl` [Example 30 (P. aeruginosa), (S)-(−)-9-Fluoro-6,7-dihydro-8-{4′-(L-alanyloxy)piperidin-1-yl}-5-methyl-1-oxo-1H,5H-benzo[i,j]quinolizine-2-carboxylic acid hydrochloride], the “Difference in Zone diameter Z1 (mm)” value in assay [1] is recorded as 9 mm.

With `O=C(O)c1cn(-c2ccc(F)cc2F)c2nc(NC3CCNCC3)c(F)cc2c1=O` [Example 50 (NorA), 1-(2′,4′-Difluorophenyl)-6-fluoro-1,4-dihydro-7-(piperidin-4-yl-amino)-4-oxo-1,8-naphthyridine-3-carboxylic acid], in assay [1], the “Difference in Zone diameter Z1 (mm)” value is recorded as 6 mm. In addition, in assay [2], the “FIC INDEX” value is on record as 0.314.

For `CCN1C(C)CN(c2cc3c(cc2F)c(=O)c(C(=O)O)cn3C2CC2)CC1C` (centres unmarked) [Example 16 (NorA), 1-Cyclopropyl-6-fluoro-1,4-dihydro-7-(3′,5′-dimethyl-4′-ethylpiperazin-1-yl)-4-oxo-quinoline-3-carboxylic acid], in assay [1], the “Difference in Zone diameter Z1 (mm)” value was 8 mm. In addition, the “FIC INDEX” value in assay [2] worked out at 0.314.

In the case of `CCn1cc(C(=O)O)c(=O)c2cc(F)c(N3CC4C(N)C4C3)c(F)c21` (centres unmarked) [Example 4 (NorA), 1-Ethyl-6,8-difluoro-1,4-dihydro-7-{(1∝,5∝,6∝)-6-amino-3-azabicyclo[3.1.01]-hex-3-yl}-4-oxo-quinoline-3-carboxylic acid], in assay [1], the “Difference in Zone diameter Z1 (mm)” value is listed as 7 mm. The “FIC INDEX” value in assay [2] came to 0.192.

Turning to `COc1c(N2CCC(N)C(C)C2)c(F)c(N)c2c(=O)c(C(=O)O)cn(C3CC3)c12` (centres unmarked) [Example 4 (P. aeruginosa), 5-Amino-1-cyclopropyl-6-fluoro-8-methoxy-1,4-dihydro-7-(4′-amino-3′-methylpiperidin-1-yl)-4-oxo-quinoline-3-carboxylic acid], in assay [1], the “Difference in Zone diameter Z1 (mm)” value stood at 5 mm.

Turning to `NCC1CN(c2c(F)c(N)c3c(=O)c(C(=O)O)cn(C4CC4)c3c2F)CCC1O` (centres unmarked) [Example 11 (P. aeruginosa), 5-Amino-1-(cyclopropyl)-6,8-difluoro-1,4-dihydro-7-(3′-aminomethyl-4′-hydroxy-piperidin-1-yl)-4-oxo-quinoline-3-carboxylic acid], the “Difference in Zone diameter Z1 (mm)” value in assay [1] is on record as 3 mm.

In the case of `CCNC1CCN(c2c(F)c(N)c3c(=O)c(C(=O)O)cn(C4CC4)c3c2OC)CC1(C)C` (centres unmarked) [Example 5 (P. aeruginosa), 5-Amino-1-cyclopropyl-6-fluoro-8-methoxy-1,4-dihydro-7-{3′,3′-dimethyl-4′-ethylaminopiperidin-1-yl}-4-oxo-quinoline-3-carboxylic acid], the “Difference in Zone diameter Z1 (mm)” value in assay [1] worked out at 3 mm.

Consider `CCC1CN(c2nc3c(cc2F)c(=O)c(C(=O)O)cn3C2CC2)CCC1N` (centres unmarked) [Example 20 (P. aeruginosa), 1-Cyclopropyl-6-fluoro-1,4-dihydro-7-(4′-amino-3′-ethylpiperidin-1-yl)-4-oxo-naphthyridine-3-carboxylic acid], for which, in assay [1], the “Difference in Zone diameter Z1 (mm)” value is on record as 6 mm.

For the compound `Cc1c(F)c(N2CCC(O)C(CN)C2)c(F)c2c1c(=O)c(C(=O)O)cn2C1CC1` (centres unmarked) [Example 25 (NorA), 1-Cyclopropyl-6,8-difluoro-5-methyl-1,4-dihydro-7-(4′-hydroxy-3′-aminomethylpiperidin-1-yl)-4-oxo-quinoline-3-carboxylic acid], the “Difference in Zone diameter Z1 (mm)” value in assay [1] is given as 5 mm. Besides, in assay [2], the “FIC INDEX” value was 0.192.

Turning to “(S)-(−)-9-Fluoro-6,7-dihydro-8-(4′-hydroxypiperidin-1-yl)-5-methyl-1-oxo-1H,5H-benzo[i,j]quinolizine-2-carboxylic acid. (L) histidine salt [Example 25 (P. aeruginosa)]”, in assay [1], the “Difference in Zone diameter Z1 (mm)” value is reported as 5 mm.

With `C[C@@H]1CCc2c(N3CCC(OC(=O)[C@H](N)Cc4ccccc4)CC3)c(F)cc3c(=O)c(C(=O)O)cn1c23.Cl` (racemic) [Example 26 (P. aeruginosa), (RS)-(±)-9-Fuoro-6,7-dihydro-8-{4′-(D-phenylalaninoxy)piperidin-1-yl}-5-methyl-1-oxo-1H,5H-benzo[i,j]quinolizine-2-carboxylic acid hydrochloride], the “Difference in Zone diameter Z1 (mm)” value in assay [1] is 12 mm.

On to `Nc1c(F)c(N2CCC(N)C2)c(F)c2c1c(=O)c(C(=O)O)cn2-c1ccc(F)cc1F` (centres unmarked) [Example 16 (P. aeruginosa), 5-Amino-1-(2′,4′-difluorophenyl)-6,8-difluoro-1,4-dihydro-7-(3-aminopyrrolidine-1-yl)-4-oxo-quinoline-3-carboxylic acid], for which the “Difference in Zone diameter Z1 (mm)” value in assay [1] was determined as 3 mm.

In the case of `COc1c(N2CCC(C)(O)CC2)c(F)cc2c(=O)c(C(=O)O)cn(C3CC3)c12` [Example 8 (P. aeruginosa), 1-Cyclopropyl-6-fluoro-8-methoxy-1,4-dihydro-7-(4′-hydroxy-4′-methylpiperidin-1-yl)-4-oxo-quinoline-3-carboxylic acid], in assay [1], the “Difference in Zone diameter Z1 (mm)” value was 5 mm.

As for `COc1c(N2CCC(N(C)C)CC2)c(F)cc2c(=O)c(C(=O)O)cn(C3CC3)c12` [Example 7 (P. aeruginosa), 1-Cyclopropyl-6-fluoro-8-methoxy-1,4-dihydro-7-{4′-dimethylaminopiperidin-1-yl}-4-oxo-quinoline-3-carboxylic acid], in assay [1], the “Difference in Zone diameter Z1 (mm)” value is 5 mm.

Turning to `O=C(O)c1cn(C2CC2)c2nc(NC3CCNC3)c(F)cc2c1=O` (centres unmarked) [Example 49 (NorA), 1-Cyclopropyl-6-fluoro-1,4-dihydro-7-(pyrrolidin-3-yl-amino)-4-oxo-1,8naphthyridine-3-carboxylic acid], the “Difference in Zone diameter Z1 (mm)” value in assay [1] was 6 mm. In addition, the “FIC INDEX” value in assay [2] is recorded as 0.188.

Turning to `COc1c(N2CCC(O)C(C)(C)C2)c(F)cc2c(=O)c(C(=O)O)cn(C3CC3)c12` (centres unmarked) [Example 21 (NorA), 1-Cyclopropyl-6-fluoro-8-methoxy-1,4-dihydro-7-(4′-hydroxy-3′,3′-dimethylpiperidin-1-yl)-4-oxo-quinoline-3-carboxylic acid], the “Difference in Zone diameter Z1 (mm)” value in assay [1] is listed as 8 mm. Besides, in assay [2], the “FIC INDEX” value came out at 0.264.

In the case of `CC1CCc2c(N3CC[C@@H](O)[C@H](C)C3)c(F)cc3c(=O)c(C(=O)O)cn1c23` (mixture of isomers) [Example 33 (P. aeruginosa), (RS)-(+)-9-Fluoro-6,7-dihydro-8-(trans-4′-hydroxy-3′-methylpiperidin-1-yl)-5-methyl-1-oxo-1H,5H-benzo[i,j]quinolizine-2-carboxylic acid], the “Difference in Zone diameter Z1 (mm)” value in assay [1] is reported as 6 mm.

Turning to `CCC1CN(c2c(F)cc3c(=O)c(C(=O)O)cn4c3c2OCC4C)CCC1O` (centres unmarked) [Example 36 (P. aeruginosa), 7H-Pyrido[1,2,3-de]-1,4-benzoxazine-9-fluoro-2,3-dihydro-3-methyl-10-(4′-hydroxy-3′-ethylpiperidin-1′-yl)-7-oxo-6-carboxylic acid], the “Difference in Zone diameter Z1 (mm)” value in assay [1] and in assay [3] was 5 mm throughout.

For `CC1CN(c2c(F)cc3c(=O)c(C(=O)O)cn4c3c2CCC4C)CCC1O` (racemic) [Example 34 (P. aeruginosa), (RS)-(+)-9-Fluoro-6,7-dihydro-8-(cis-4′-hydroxy-3′-methylpiperidin-1-yl}-5-methyl-1H,5H-benzo[i,j]quinolizine-2-carboxylic acid], in assay [1], the “Difference in Zone diameter Z1 (mm)” value is recorded as 6 mm.

On to `CCN1CCN(c2cc3c(cc2F)c(=O)c(C(=O)O)cn3C2CC2)CC1C` (centres unmarked) [Example 13 (P. aeruginosa), 1-Cyclopropyl-6-fluoro-1,4-dihydro-7-(4′-ethyl-3′-methylpiperazin-1-yl)-4-oxo-quinoline-3-carboxylic acid], for which the “Difference in Zone diameter Z1 (mm)” value in assay [1] amounted to 4 mm.

As to `COC1CCN(c2cc3c(c(C)c2F)c(=O)c(C(=O)O)cn3C2CC2)CC1` [Example 1 (P. aeruginosa), 1-Cyclopropyl-6-fluoro-1,4-dihydro-5-methyl-7-(4′-methoxypiperidin-1-yl)-4-oxo-quinoline-3-carboxylic acid], the “Difference in Zone diameter Z1 (mm)” value in assay [1] stood at 13 mm.

Turning to `CCOC(=O)C1(N)CCN(c2c(F)c(N)c3c(=O)c(C(=O)O)cn(C4CC4)c3c2F)C1` (centres unmarked) [Example 17 (P. aeruginosa)], the “Difference in Zone diameter Z1 (mm)” value in assay [1] was determined as 8 mm.

Consider `CC1CCc2c(N3CCC(OC(=O)[C@@H](N)CC(=O)O)CC3)c(F)cc3c(=O)c(C(=O)O)cn1c23.Cl` (mixture of isomers) [Example 27 (P. aeruginosa), (RS)-(±)-9-Fluoro-6,7-dihydro-8-4′-(L-ot-aspartyloxy)piperidin-1-yl]-5-methyl-1-oxo-1H,5H-benzo[i,j]quinolizine-2-carboxylic acid hydrochloride], for which the results for the “Difference in Zone diameter Z1 (mm)” value in assay [1] and in assay [3] were 11 mm and 6 mm, respectively.

`Cc1c(F)c(F)c(F)c2c1c(=O)c(C(=O)O)cn2C1CC1` [Example 29 (Mef), 1-cyclopropyl-6,7,8-trifluoro-5-methyl-1,4-dihydro-4-oxo-quinoline-3-carboxylic acid]: in assay [3], the “Difference in Zone diameter Z1 (mm)” value is 10 mm.
